Laboratory results taken from patent US4933363A, “Method for effecting systemic delivery of delta-9-tetrahydrocannabinol” (priority 1988, dated 1990).

What was measured:
[1] = Suppository of N-methyl glucamine salt vs free hemisuccinate ester (GC/MS blood levels); settings: equivalent to 10 mg parent drug per suppository, monkeys
[2] = 4×4 Latin square comparison of i.v., oral and suppository administration (GC/MS plasma levels); settings: for Mean delta-9-tetrahydrocannabinol level in plasma: four monkeys; for concentration at 0.25 h / concentration at 0.5 h / concentration at 1 h / concentration at 1.5 h / concentration at 2 h / concentration at 3 h / concentration at 4 h / concentration at 6 h / concentration at 8 h / concentration at 24 h / concentration at 0.1 h: monkey, plasma
[3] = Bioavailability of parent delta-9-tetrahydrocannabinol from a suppository (GC/MS of blood samples); type: in vivo, monkey; settings: 10 mg/suppository
Description: The parent drug delta-9-tetrahydrocannabinol was formulated in a suppository form at 10 mg/suppository using Witepsol-H15 as the base. One suppository was administered to a monkey and blood samples collected at the same time intervals as shown under Examples II-V. GC/MS analysis of these samples was carried out for delta-9-tetrahydrocannabinol and its metabolite.

[4] = cited from earlier work
[5] = various suppository formulations; cited from earlier work
[6] = i.v., 0.5 mg/kg parent equivalent, 0.0 hr
[7] = Witepsol-H15, one monkey, GC/MS, all time points

CCCCCc1cc(OC(=O)CCC(=O)O)c2c(c1)OC(C)(C)[C@@H]1CCC(C)=C[C@@H]21 [Delta-9-tetrahydrocannabinol hemisuccinate ester]
blood levels, free ester vs N-methyl glucamine salt suppository [1]: virtually equivalent | equivalency of intravenous dosage of ester to intravenous dosage of parent ([2]; i.v., 0.5 mg/kg parent drug equivalent, monkeys): equivalency of the intravenous dosage of the hemisuccinate ester of delta-9-tetrahydrocannabinol to the intravenous dosage of the parent delta-9-tetrahydrocannabinol | Mean delta-9-tetrahydrocannabinol level in plasma [2, 6]: 0.0 ng/mL | concentration at 0.25 h [2]: 14.8 ng/mL | concentration at 0.5 h [2]: 33.5 ng/mL | concentration at 1 h [2]: 46 ng/mL | concentration at 1.5 h [2]: 53.5 ng/mL | concentration at 2 h [2]: 53.3 ng/mL | concentration at 3 h [2]: 50 ng/mL | concentration at 4 h [2]: 38 ng/mL | concentration at 6 h [2]: 18.5 ng/mL | concentration at 8 h [2]: 12.8 ng/mL | concentration at 24 h [2]: 1.3 ng/mL | concentration at 0.1 h ([2]; iv, 0.5 mg/kg): 2060 ng/mL | concentration at 0.25 h ([2]; iv, 0.5 mg/kg): 669 ng/mL | concentration at 0.5 h ([2]; iv, 0.5 mg/kg): 251 ng/mL | concentration at 1 h ([2]; iv, 0.5 mg/kg): 95.8 ng/mL | concentration at 1.5 h ([2]; iv, 0.5 mg/kg): 65.3 ng/mL | concentration at 2 h ([2]; iv, 0.5 mg/kg): 42.5 ng/mL | concentration at 3 h ([2]; iv, 0.5 mg/kg): 26.3 ng/mL | concentration at 4 h ([2]; iv, 0.5 mg/kg): 18.5 ng/mL | concentration at 6 h ([2]; iv, 0.5 mg/kg): 13 ng/mL | concentration at 8 h ([2]; iv, 0.5 mg/kg): 8 ng/mL | concentration at 24 h ([2]; iv, 0.5 mg/kg): 2.5 ng/mL | delivery of delta-9-tetrahydrocannabinol to the blood vs oral sesame seed oil formulation of parent ([2]; suppository vs oral 10 mg, monkeys): extraordinary superiority | Mean delta-9-tetrahydrocannabinol level in plasma ([2]; suppository, 0.0 hr): 0.0 ng/mL | Mean delta-9-tetrahydrocannabinol level in plasma ([2]; suppository, 0.1 hr): 0.0 ng/mL

CCCCCc1cc(O)c2c(c1)OC(C)(C)[C@@H]1CCC(C)=C[C@@H]21 [delta-9-tetrahydrocannabinol]
bioavailability from a suppository dosage form ([3]; Witepsol-H15, monkey): lack of bioavailability | delta-9-tetrahydrocannabinol detected in blood samples [3, 7]: Neither delta-9-tetrahydrocannabinol nor its metabolite was detected | metabolite (11-nor-delta-9-tetrahydrocannabinol-9-COOH) detected in blood samples [3, 7]: Neither delta-9-tetrahydrocannabinol nor its metabolite was detected | bioavailability via the oral routes ([4]; oral (e.g. chocolate cookies, sesame oil capsules)): quite low | effect of fasting or food deprivation on absorption from the gastrointestinal tract ([4]; oral, fasting or food deprivation): decreased by fasting or food deprivation | interpatient variability in absorption ([4]; oral, patients): extreme interpatient variability in absorption | oral absorption ([4]; oral): slow and erratic | absorption and bioavailability via the rectal route [5]: no absorption, consequently no bioavailability achieved via the rectal route | Mean delta-9-tetrahydrocannabinol level in plasma [2, 6]: 0.0 ng/mL | concentration at 0.1 h ([2]; iv, 0.5 mg/kg): 1680 ng/mL | concentration at 0.25 h ([2]; iv, 0.5 mg/kg): 335 ng/mL | concentration at 0.5 h ([2]; iv, 0.5 mg/kg): 170 ng/mL | concentration at 1 h ([2]; iv, 0.5 mg/kg): 102 ng/mL | concentration at 1.5 h ([2]; iv, 0.5 mg/kg): 67.3 ng/mL | concentration at 2 h ([2]; iv, 0.5 mg/kg): 55.8 ng/mL | concentration at 3 h ([2]; iv, 0.5 mg/kg): 34 ng/mL | concentration at 4 h ([2]; iv, 0.5 mg/kg): 22.8 ng/mL | concentration at 6 h ([2]; iv, 0.5 mg/kg): 29 ng/mL | concentration at 8 h ([2]; iv, 0.5 mg/kg): 17.3 ng/mL | concentration at 24 h ([2]; iv, 0.5 mg/kg): 2.5 ng/mL | concentration at 3 h ([2]; po, 10 mg): 0.5 ng/mL | concentration at 4 h ([2]; po, 10 mg): 1.3 ng/mL | concentration at 6 h ([2]; po, 10 mg): 2.3 ng/mL | concentration at 8 h ([2]; po, 10 mg): 4.3 ng/mL | concentration at 24 h ([2]; po, 10 mg): 0.8 ng/mL | Mean delta-9-tetrahydrocannabinol level in plasma ([2]; oral, 10 mg in sesame oil, 0.0 hr): 0.0 ng/mL | Mean delta-9-tetrahydrocannabinol level in plasma ([2]; oral, 10 mg in sesame oil, 0.1 hr): 0.0 ng/mL | Mean delta-9-tetrahydrocannabinol level in plasma ([2]; oral, 10 mg in sesame oil, 0.25 hr): 0.0 ng/mL | Mean delta-9-tetrahydrocannabinol level in plasma ([2]; oral, 10 mg in sesame oil, 0.5 hr): 0.0 ng/mL | Mean delta-9-tetrahydrocannabinol level in plasma ([2]; oral, 10 mg in sesame oil, 1.0 hr): 0.0 ng/mL | Mean delta-9-tetrahydrocannabinol level in plasma ([2]; oral, 10 mg in sesame oil, 1.5 hr): 0.0 ng/mL | Mean delta-9-tetrahydrocannabinol level in plasma ([2]; oral, 10 mg in sesame oil, 2.0 hr): 0.0 ng/mL
